Experimental data: patent publication US20210169985A1, “METHODS FOR TREATING GRAM POSITIVE BACTERIAL INFECTION” (INSERM (Institut National de la Santé et de la Recherche …, priority 2018, published 2021)
Entries after “also recorded” stand apart in the source; their conditions may differ. *1 amine or outer side, *2 acyl side, *3 side chain or, on linkers, in order; H or OH if unused. Where a SMILES comes first, the peptide text is derived from it. Bridges are numbered along the chain shown (N, C = ends). Roman numbers before positions name the chains, in order. [ ]: non-standard residue; d: D form. Actinocin(9to1) = Cc1c2oc3c(C)ccc(C(=O)[*:1])c3nc-2c(C(=O)[*:2])c(N)c1=O; NMeV = CN[C@H](C(=O)O)C(C)C; Sar = CNCC(=O)O

Tests used:
[1] = tested on: CXCL1 production in keratinocytes; assay: Cytokine quantification in supernatant of murine primary keratinocytes; assay type: cell-based; conditions: for effect of inhibitor on hepcidin-induced CXCL1 production: murine primary keratinocytes with 3.6 μM hepcidin, inhibitor added 30 minutes before (FIG. 2C); for CXCL1 production by keratinocytes: stimulated 1 or 3 hours vs PBS; for CXCL1 levels in the cell culture supernatant: 3 hours
Protocol: Keratinocytes were isolated from the skin of 2-day-old WT or Hepc^Δkerat mice, based on modifications from a previously described protocol^8. In brief, dermis were easily separated from epidermis after floating newborn mice skin on freshly thawed cold trypsin 0.25% (thermo fisher 15050065) overnight at 4° C. with the dermis side down. Cells were isolated in stop trypsin medium (DMEM, high glucose, no glutamine, no calcium (thermo fisher 21068028) containing 20% heat inactivated and Chelex (Bio rad 1421253) treated—FBS, 1% GlutaMAXSupplement (thermo fisher 35050061), 1% Sodium Pyruvate (thermo fisher 11360070), 100 U/ml Penicillin, 100 μg/ml Streptomycin (thermo fisher), 2.5 μg/ml Amphotericin B (Gibco)).
Keratinocytes were obtained by epidermis mechanical dissociation through shaking at 350 rpm for 1 hour at 37° C. The resulting cell suspension was filtered through 100 μm filter, centrifuged at 250 g for 10 min at 4° C., plated on fibronectin and bovine collagen I coated tissue culture plate and incubated at 37° C. in a humidified 5% CO2 atmosphere. The cells were cultured in 0.07 mM calcium medium (low Ca^2+) containing EGF (10 ng/ml) and cholera toxin (10^−10 mol/L). Once confluence reached, cells were switched in 1.2 mM calcium medium (high Ca^2+) in order to assure their differentiation. After three days in high Ca′ cells were differentiated and suitable for different experiments.
(§1) Keratinocytes, previously starved of FBS for 1 hour, were treated with 1 or 10 μg/ml hepcidin (Peptide International) and incubated for different time points. In some experiments, inhibitors were added 30 minutes before hepcidin treatment during FBS starving: brefaldin A (sigma B7651), cycloheximide (sigma C7698), actinomycinD (sigma A1410). The cells were lysed with Tri reagent (sigma) while supernatant cytokines were measured with the V-PLEX Proinflammatory Panel1 kit (Meso Scale Discovery), according to the manufacturer's instruction.

GAS NZ131 [2] = assay: GAS antimicrobial killing kinetics (bactericidal) assay; assay type: cell-based, Group A Streptococcus; conditions: added to the culture medium at 4 μg/ml (FIG. 3B; legend says 32 μM)
Protocol: (§2) As previously described, 9 GAS NZ131 were grown in Todd Hewitt Broth (THB, Sigma) plus 0.3% yeast extract to early log phase (absorbance at 600 nm, A600=0,2). Bacteria were then diluted in THB to A600=0,001 (≈2×10^5 colony forming units (c.f.u.) m1-1). This bacterial suspension was kept growing overnight at 37° C. in presence of PBS, LL-37, hepcidin (peptide international) or penicillin G (sigma P7794). For antimicrobial killing kinetics, exponential phase GAS (A600=0,4) was exposed to PBS or LL-37 or hepcidin and incubated at 37° C. At different time point serial dilutions of these bacterial suspensions were plated on THA plate for counting surviving c.f.u.

GAS NZ131 [3] = assay: GAS growth inhibition (bacteriostatic) assay; assay type: cell-based, Group A Streptococcus; conditions: in vitro, overnight growth, hepcidin and LL-37 at the same concentration (FIG. 3A)
Protocol: as §2

CXCL1 mRNA = CXCL1 mRNA expression by Q-PCR in primary keratinocytes; assay type: cell-based, murine; conditions: WT primary keratinocytes, 1 and 3 hours, 360 nM or 3.6 μM (FIG. 2B)
Protocol: RNA extraction, reverse transcription and quantitative PCR have been performed as previously described {Zumerle, 2014 #46}. All samples were normalized to the threshold cycle value for cyclophilin-A.
as §1

GAS [4] = assay: Therapeutic treatment in GAS induced necrotizing soft tissue infection model; assay type: in vivo, C57BL6 mice
Protocol: (§3) A well-established model of necrotizing soft tissue infection was adapted for this study (^7,^9). In brief, 100 μl of a mid logarithmic growth phase (approximately 10^7 c.f.u.) of GAS was mixed with an equal volume of sterile Cytodex beads (Sigma-Aldrich) and injected subcutaneously into the flank of 8- to 12-week-old WT and Hepc^Δkerat14 male littermates, previously shaved (veet hair removal cream). Weight loss and lesion size of mice were daily estimated. After 96 hours mice were sacrificed, skin necrotic ulcers, spleen, and blood (via retro orbital bleeding) were recovered and homogenized in 1:2 mg/μl of sterile PBS. Serial dilutions of tissue homogenate were stretched on THA plates, in order to enumerate living c.f.u.
For therapeutic treatment C57BL6 mice were infected as described above. One day after infection, animals were subcutaneously injected with PBS (control) or 1 μg of hepcidin (peptide international). Mice were treated again at 48 and 72 hours with 500 ng of hepc-25. After 96 hours mice were sacrificed, spleens were taken, homogenized for c.f.u. enumeration.

GAS [5] = assay: CXCL1 rescue experiment in GAS-infected Hepc Δkerat mice; assay type: in vivo; conditions: subcutaneous 1 μg/mouse daily, four days after GAS injection
Protocol: as §3
For rescue experiment WT and Hepc^Δkerat littermates were subcutaneously infected with 10^7 c.f.u. of GAS with mock or 1 μg/mouse of rCXCL1 (R&D system, 1395-KC-025/CF). Mice were intralesionally injected again at 24, 48 and 72 h with mock or 1 μg of rCXCL1.

`Cc1c2oc3c(C)ccc(C(=O)N[C@@H]4C(=O)N[C@H](C(C)C)C(=O)N5CCC[C@H]5C(=O)N(C)CC(=O)N(C)[C@@H](C(C)C)C(=O)O[C@@H]4C)c3nc-2c(C(=O)N[C@@H]2C(=O)N[C@H](C(C)C)C(=O)N3CCC[C@H]3C(=O)N(C)CC(=O)N(C)[C@@H](C(C)C)C(=O)O[C@@H]2C)c(N)c1=O` [actinomycin D, actinomycinD, reference compound] (I: T[dV]P[Sar][NMeV] / II: T[dV]P[Sar][NMeV]; ester I:1-I:C, II:1-II:C; linker I:N-II:N via Actinocin(9to1)) was tested, and the “effect of inhibitor on hepcidin-induced CXCL1 production” value [1] was “not”.

For “mini-hepcidin: murine mini-hepcidin consisting in the 9 N-terminal amino acids of hepcidin (DTNFPICIF; Hepcidin; UniProt Q9EQ21 59-67, looked up, fragment) [reference compound]”, the “CXCL1 production by keratinocytes” value ([1]; murine primary keratinocytes) was “not able to trigger CXCL1 production” and the “CXCL1 production by keratinocytes” value ([1]; murine primary keratinocytes, listed as Mini-hepcidin) was “does bot promote CXCL1 production”.

In the case of LL-37 [reference compound], the “bactericidal activity against GAS (bacterial titers vs control)” value (GAS NZ131 [2]) is reported as “significant reduction in bacterial titers” and the “bacteriostatic effect against GAS (inhibition of GAS growth)” value (GAS NZ131 [3]) is reported as “able to prevent the growth of the bacteria”.

In the case of “hepcidin: mature 25-amino acid form of hepcidin (hepc-25), obtained from Peptide International”, the “CXCL1 expression at the mRNA level” value (CXCL1 mRNA) is reported as “did not increase”, the “bactericidal activity against GAS (bacterial titers vs control)” value (GAS NZ131 [2]) is reported as “no effect” and the “bacteriostatic effect against GAS (inhibition of GAS growth)” value (GAS NZ131 [3]) is reported as “no antimicrobial activity; also recorded: no direct bacteriostatic effect”. The “treated mice with no systemic bacterial dissemination (bacteria in the spleen)” value (GAS [4]; GAS-infected mice, 96 hours after infection, all control mice disseminated) was 7 out of 9, the “weight (marker of morbidity)” value (GAS [4]; GAS-infected mice, sc 1 μg at 24 h then 500 ng at 48 and 72 h, 96 hours, vs mock) was “did not loose weight” and the “signs of morbidity (rough hair coat, hunched posture)” value (GAS [4]; GAS-infected mice, sc 1 μg at 24 h then 500 ng at 48 and 72 h, vs mock) was “didn't present any signs of morbidity”. The “systemic spread of infection” value (GAS [4]; local injection at the site of infection (FIG. 2F)) was “prevents systemic spread of infection”, the “production of other tested inflammatory cytokines” value ([1]; murine primary keratinocytes, 360 nM and 3.6 μM hepcidin) was “not” and the “CXCL1 levels in the cell culture supernatant” value ([1]; murine primary keratinocytes, 360 nM) was 150 pg/mL. The “CXCL1 levels in the cell culture supernatant” value ([1]; murine primary keratinocytes, 3.6 μM) was 50 pg/mL and the “CXCL1 production by keratinocytes” value ([1]; murine primary keratinocytes) was “dose dependent increase”.

`C[C@@H]1C[C@@H]([C@H](O)CC2CC(=O)NC(=O)C2)C(=O)[C@@H](C)C1` [Cycloheximide, cycloheximide, reference compound] was tested, and the “effect of inhibitor on hepcidin-induced CXCL1 production” value [1] was “significantly reduced”.

B1: CXCL1: rCXCL1 (R&D system, 1395-KC-025/CF), key neutrophil chemokine (protein, UniProt P12850 25-96, looked up)
Growth-regulated alpha protein: APIANELRCQCLQTMAGIHLKNIQSLKVLPSGPHCTQTEVIATLKNGREACLDPEAPLVQKIVQKMLKGVPK
With B1 the “number of bacteria in skin of Hepc Δkerat mice” value (GAS [5]) was “decreased the number of bacteria at the level of WT mice”.
